Laboratory results published in BigSolDB 2.1.

Cc1ccc(-c2ncc(Cl)cc2-c2ccc(S(C)(=O)=O)cc2)cn1
solubility (mole fraction)
Details	293.2 K	298.2 K	303.2 K	308.2 K	313.2 K
in 1,4-butanediol	0.0605	0.0723	0.0873	0.104	0.124
in 1,4-dioxane	0.0445	0.073	0.111	0.173	0.265
in DMAc	0.0481	0.0811	0.141	0.236	0.387
in DMF	0.0369	0.069	0.122	0.215	0.374
in DMSO	0.0292	0.0605	0.126	0.253	0.495
in NMP	0.0658	0.108	0.169	0.265	0.411
in ethanol	0.0337	0.0537	0.0807	0.121	0.182
in ethylene glycol	0.113	0.119	0.129	0.139	0.153
in formamide	0.0586	0.113	0.225	0.425	0.779
in glycerin	0.0558	0.0566	0.0577	0.0593	0.0625
in isopropanol	0.0282	0.0452	0.0668	0.1	0.149
in methanol	0.0241	0.0379	0.0561	0.0843	0.125
in n-propanol	0.0505	0.0788	0.111	0.164	0.238
in propylene glycol	0.0472	0.0605	0.0754	0.0942	0.117
in water	1.36e-05	1.58e-05	1.86e-05	2.12e-05	2.44e-05

Details	solubility (mole fraction)
in PEG-200, 293.2 K	0.116
in PEG-200, 298.2 K	0.135
in PEG-200, 303.2 K	0.156
in PEG-200, 308.2 K	0.176
in PEG-200, 313.2 K	0.201
in PEG-400, 293.2 K	0.211
in PEG-400, 298.2 K	0.238
in PEG-400, 303.2 K	0.275
in PEG-400, 308.2 K	0.311
in PEG-400, 313.2 K	0.351
in PEG-600, 293.2 K	0.329
in PEG-600, 298.2 K	0.354
in PEG-600, 303.2 K	0.389
in PEG-600, 308.2 K	0.422
in PEG-600, 313.2 K	0.456
